What was measured:
Assay type in all cases: in vivo
Scirpus juncoides [1] = experiment: Test Example 2: herbicidal activity, application during weed generation in submerged conditions (symbol B); details: Table 23; application herbicide amount 320 g/ha; grade 0-5 by criteria of Test Example 1
In short: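 Steps: fill pots with alluvial soil; add water to 4 cm depth; co-sow the three weeds; grow at 25° C. to 30° C. under glass; at 1–2 leaves, dose the floodwater with diluted emulsion; rate damage visually after 3 weeks.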

Alopecurus myosuroides [2] = experiment: Test Example 4: herbicidal effect by soil treatment (symbol J); details: application herbicide amount 320 g/ha
In short: (§1)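 Seeds were sown in sterilized diluvial soil, covered with about 1.5 cm of soil, and the soil surface was sprayed with a water-diluted emulsion of the compound at a predetermined rate. Plants grew in a greenhouse at 25° C. to 30° C.; effects were scored visually 3 weeks after application.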

Chenopodium album = experiment: Test Example 4: herbicidal effect by soil treatment (symbol O); details: application herbicide amount 320 g/ha
In short: as §1

transplanted rice plant = experiment: Test Example 1: effect on crop, application before weed generation in submerged conditions (symbol a); details: application herbicide amount 320 g/ha
In short: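 Rice at 2.5 leaf stage transplanted into submerged soil (4 cm depth) sown with three weed species; herbicide applied before weed emergence.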

Scirpus juncoides [3] = experiment: Test Example 1: herbicidal activity, application before weed generation in submerged conditions (symbol B); details: application herbicide amount 320 g/ha
In short: (§2)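 Mixed weed seeds sown in alluvial soil under 4 cm of water, with rice seedlings at the 2.5-leaf stage added. Same-day treatment: emulsion diluted to a set herbicide amount onto the water. Three weeks at 25–30 °C, then graded on a six-step scale.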

beet = experiment: Test Example 4: effect on crop by soil treatment (symbol f); details: application herbicide amount 320 g/ha
In short: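 Plants are raised in a greenhouse (25° C. to 30° C.) from spot-sown seed, which sits under about 1.5 cm of sterilized diluvial soil in a box shared with weed species.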

soybean = experiment: Test Example 5: effect on crop by foliage application, plastic box (symbol d); details: 320 g/ha, 3 weeks after application
In short: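 Box culture: sterile diluvial soil, seeds spot-sown, ~1.5 cm cover, raised under glass at 25–30° C.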

Alopecurus myosuroides [4] = experiment: Test Example 5: herbicidal effect by foliage application, plastic box (symbol J); details: 320 g/ha, 3 weeks after application
In short: (§3)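 Herbicide, formulated as an emulsion and diluted in water, is sprayed onto the aerial parts of 14-day seedlings. These were grown at 25° C. to 30° C. in sterilized diluvial soil; effects are graded after 3 weeks.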

Setaria viridis = experiment: Test Example 4: herbicidal effect by soil treatment (symbol G); details: application herbicide amount 320 g/ha
In short: as §1

[5] = test system: Echinochloa crus-galli var. crus-galli; experiment: Test Example 5: herbicidal effect by foliage application, plastic box (symbol H); details: 320 g/ha, 3 weeks after application
In short: as §3

Monochoria vaginalis = experiment: Test Example 1: herbicidal activity, application before weed generation in submerged conditions (symbol C); details: application herbicide amount 320 g/ha
In short: as §2

[6] = test system: Echinochloa oryzacola Vasing.; experiment: Test Example 1: herbicidal activity, application before weed generation in submerged conditions (symbol A); details: application herbicide amount 320 g/ha
In short: as §2

SMILES	Herbicidal effect grade, B: Scirpus juncoides (Scirpus juncoides [1])	J: Alopecurus myosuroides, herbicidal effect grade (Alopecurus myosuroides [2])	O: Chenopodium album, herbicidal effect grade (Chenopodium album)	Effect grade on crop, a: transplanted rice plant (transplanted rice plant)	Herbicidal effect grade, B: Scirpus juncoides (Scirpus juncoides [3])	f: beet, effect on crop grade (beet)	d: soybean, effect on crop grade (soybean)	J: Alopecurus myosuroides, herbicidal effect grade (Alopecurus myosuroides [4])	G: Setaria viridis, herbicidal effect grade (Setaria viridis)	H: Echinochloa crus-galli var. crus-galli, herbicidal effect grade [5]	Herbicidal effect grade, C: Monochoria vaginalis (Monochoria vaginalis)	Herbicidal effect grade, A: Echinochloa oryzacola Vasing. [6]
CON=C(C)CC1CC(O)=C(c2c(C)cc(Br)cc2C)C1=O (stereo not drawn) [6-003]	1 (Herbicidal ratio of 5% or higher and lower than 20%)	5 (Herbicidal ratio of 90% or more (almost completely withered))	0 (Herbicidal ratio of 5% or lower (almost no effect))	5 (Herbicidal ratio of 90% or more (almost completely withered))	4 (Herbicidal ratio of 70% or higher and lower than 90%)	0 (Herbicidal ratio of 5% or lower (almost no effect))	3 (Herbicidal ratio of 40% or higher and lower than 70%)	5 (Herbicidal ratio of 90% or more (almost completely withered))	5 (Herbicidal ratio of 90% or more (almost completely withered))	5 (Herbicidal ratio of 90% or more (almost completely withered))	1 (Herbicidal ratio of 5% or higher and lower than 20%)	5 (Herbicidal ratio of 90% or more (almost completely withered))
CCc1cc(C)cc(C)c1C1=C(O)CC(CC(C)=NOC)C1=O (stereo not drawn) [6-007]	3 (Herbicidal ratio of 40% or higher and lower than 70%)	5 (Herbicidal ratio of 90% or more (almost completely withered))	0 (Herbicidal ratio of 5% or lower (almost no effect))	5 (Herbicidal ratio of 90% or more (almost completely withered))	5 (Herbicidal ratio of 90% or more (almost completely withered))	0 (Herbicidal ratio of 5% or lower (almost no effect))	2 (Herbicidal ratio of 20% or higher and lower than 40%)	5 (Herbicidal ratio of 90% or more (almost completely withered))	5 (Herbicidal ratio of 90% or more (almost completely withered))	5 (Herbicidal ratio of 90% or more (almost completely withered))	1 (Herbicidal ratio of 5% or higher and lower than 20%)	5 (Herbicidal ratio of 90% or more (almost completely withered))
CON=C(C)CC1CC(O)=C(c2c(C)cc(-c3ccccc3)cc2C)C1=O (stereo not drawn) [6-015]	5 (Herbicidal ratio of 90% or more (almost completely withered))	5 (Herbicidal ratio of 90% or more (almost completely withered))	3 (Herbicidal ratio of 40% or higher and lower than 70%)	5 (Herbicidal ratio of 90% or more (almost completely withered))	5 (Herbicidal ratio of 90% or more (almost completely withered))	0 (Herbicidal ratio of 5% or lower (almost no effect))	3 (Herbicidal ratio of 40% or higher and lower than 70%)	5 (Herbicidal ratio of 90% or more (almost completely withered))	5 (Herbicidal ratio of 90% or more (almost completely withered))	5 (Herbicidal ratio of 90% or more (almost completely withered))	5 (Herbicidal ratio of 90% or more (almost completely withered))	5 (Herbicidal ratio of 90% or more (almost completely withered))

Source: patent publication US11000033B2, “Ketone or oxime compound, and herbicide” (NISSAN CHEMICAL CORPORATION, priority 2014, dated 2021)
